Assay results: ChEMBL document CHEMBL5346965, “Synthesis of Bleomycin-Inspired RNA Ligands Targeting the Biogenesis of Oncogenic miRNAs” (J Med Chem, 2023)
Active and inactive are the calls of the source. The calls are words filed in the database; no cut-off is given here.

Experiments:
microRNA 21 [1] = experiment: Binding affinity to 5'-fluorescein labeled pre-miR-21 (unknown origin) by fluorescence based assay; format: nucleic-acid assay
[2] = Selectivity index, ratio of IC50 for inhibition of pre-miR-21 (unknown origin) dicer cleavage activity preincubated for 30 mins followed by MCF-7 cell lysates addition and measured after 30 to 60 mins by FRET method to IC50 for inhibition of pre-miR-21 (unknown origin) dicer cleavage activity preincubated for 30 mins followed by RNAase III addition and measured after 30 to 60 mins by FRET method
microRNA 21 [3] = experiment: Inhibition of pre-miR-21 (unknown origin) dicer cleavage activity preincubated for 30 mins followed by MCF7 cell lysates addition and measured after 30 to 60 mins by FRET method; format: functional, subcellular
microRNA 21 [4] = experiment: Inhibition of pre-miR-21 (unknown origin) dicer cleavage activity preincubated for 30 mins followed by RNAase III addition and measured after 30 to 60 mins by FRET method; format: functional
[5] = Antiproliferative activity against human N15-0385 cells incubated for 72 hrs by WST-1 assay; format: functional, cell-based; conditions: N15-0385, 72 h
[6] = Antiproliferative activity against human N13-1300 cells incubated for 72 hrs by WST-1 assay; format: functional, cell-based; conditions: N13-1300, 72 h
microRNA 21 [7] = experiment: Inhibition of pre-miR-21 (unknown origin) dicer cleavage activity upto 1 mM preincubated for 30 mins followed by RNAase III addition and measured after 30 to 60 mins by FRET method; format: functional; conditions: time 60-90 min
U-87 MG = experiment: Antiproliferative activity against human U87 cells incubated for 72 hrs by WST-1 assay; format: functional, cell-based, U-87MG ATCC
[8] = Antiproliferative activity against human MRC5 cells incubated for 72 hrs by WST-1 assay; format: toxicity, cell-based

Row | SMILES | Kd (microRNA 21 [1]) [µM] | Ratio IC50 [2] | IC50 (microRNA 21 [3]) [µM] | IC50 (microRNA 21 [4]) [µM] | also measured
1 | NCCCCNCCCNC(=O)c1csc(-c2csc(CCNS(=O)(=O)c3cc4ccccc4s3)n2)n1 | 0.33 | 4.7 | 55.5 | 11.8 | –
2 | Cc1ccc(S(=O)(=O)NCCc2nc(-c3nc(C(=O)NCCCNCCCCN)cs3)cs2)cc1 | 0.33 | – | – | – | –
3 | Cc1nc(C)c(S(=O)(=O)NCCc2nc(-c3nc(C(=O)NCCCNCCCCN)cs3)cs2)s1 | – | – | – | 75.9 | –
4 | NCCCCNCCCNC(=O)c1csc(-c2csc(CCNC(=O)[C@@H](N)CCCCN)n2)n1 | 0.835 | – | – | – | –
5 | NCCCCNCCCNC(=O)c1csc(-c2csc(CCNS(=O)(=O)c3c[nH]cn3)n2)n1 | – | – | – | 20.3 | –
6 | Cn1nnc2c(C(N)=O)ncn2c1=O [TEMOZOLOMIDE] | – | – | – | – | IC50 [5]: > 100 µM; IC50 [6]: 20.8 µM
7 | NCCCCNCCCNC(=O)c1csc(-c2csc(CCNS(=O)(=O)c3ccc4ccccc4c3)n2)n1 | 0.33 | – | – | – | –
8 | NCCCCNCCCNC(=O)c1csc(-c2csc(CCNCc3ccc4[nH]cnc4c3)n2)n1 | – | 2.5 | 50.1 | 20.3 | –
9 | NCCCCNCCCNC(=O)c1csc(-c2csc(CCNC(=O)c3ccc4cccnc4n3)n2)n1 | 0.4 | – | – | – | –

The next lines start with results.

Row | Kd (microRNA 21 [1]) [µM] | Ratio IC50 [2] | IC50 (microRNA 21 [3]) [µM] | IC50 (microRNA 21 [4]) [µM] | SMILES | also measured
10 | 0.33 | – | – | – | NCCCCNCCCNC(=O)c1csc(-c2csc(CCNS(=O)(=O)c3cccc4cccnc34)n2)n1 | –
11 | – | 6.2 | 195 | 31.2 | NCCCCNCCCNC(=O)c1csc(-c2csc(CCNCc3ccccc3)n2)n1 | –
12 | 1.91 | – | – | 38.3 | NCCCCNCCCNC(=O)c1csc(-c2csc(CCNC(=O)CCCC[C@@H]3SC[C@@H]4NC(=O)N[C@@H]43)n2)n1 | inhibition (microRNA 21 [3]; time 60-90 min): inactive
13 | 12.6 | – | – | – | Cc1c(N)nc([C@H](CC(N)=O)NC[C@H](N)C(N)=O)nc1C(=O)N[C@H](C(=O)N[C@H](C)[C@@H](O)[C@H](C)C(=O)N[C@H](C(=O)NCCc1nc(-c2nc(C(=O)NCCCNCCCCN)cs2)cs1)[C@@H](C)O)[C@@H](O[C@@H]1O[C@@H](CO)[C@@H](O)[C@H](O)[C@@H]1O[C@@H]1O[C@H](CO)[C@@H](O)[C@H](OC(N)=O)[C@@H]1O)c1cnc[nH]1 | inhibition (microRNA 21 [7]): inactive
14 | 0.076 | 4.3 | 6.93 | 1.62 | CN(C)c1ccc(/N=N/c2ccc(S(=O)(=O)NCCc3nc(-c4nc(C(=O)NCCCNCCCCN)cs4)cs3)cc2)cc1 | IC50 [5]: 37.1 µM; IC50 (U-87 MG): 45.3 µM; IC50 at 72 h [8]: > 100 µM; IC50 [6]: 22 µM
15 | – | 1.3 | 4.68 | 3.74 | NCCCCNCCCNC(=O)c1csc(-c2csc(CCNCc3ccc4scnc4c3)n2)n1 | IC50 [5]: 44.7 µM; IC50 (U-87 MG): 16.5 µM; IC50 at 72 h [8]: > 100 µM; IC50 [6]: 24.5 µM
16 | 3.63 | – | – | – | NCCCCNCCCNC(=O)c1csc(-c2csc(CCN)n2)n1 | IC50 [5]: > 100 µM; IC50 (U-87 MG): 37.4 µM; inhibition (microRNA 21 [4]; time 60-90 min): inactive; IC50 at 72 h [8]: 16.6 µM; IC50 [6]: 67.3 µM
17 | 1.68 | – | – | – | NCCCCNCCCNC(=O)c1csc(-c2csc(CCNC(=O)[C@@H](N)Cc3c[nH]cn3)n2)n1 | –
18 | 1.87 | – | – | – | C#CCCCCC(=O)NCCc1nc(-c2nc(C(=O)NCCCNCCCCN)cs2)cs1 | –
19 | 0.33 | 5.6 | 92.8 | 16.4 | CC(C)(C)c1ccc(S(=O)(=O)NCCc2nc(-c3nc(C(=O)NCCCNCCCCN)cs3)cs2)cc1 | –
